# What was measured:
# [1] = test system: pulmonary fibrosis induced by bleomycin; assay: Stearic acid in bleomycin-induced pulmonary fibrosis animal model; assay type: in vivo, mice (C57BL6J)
# Source text: Based on the results of Example 2-2, the present inventors attempted to verify the anti-fibrotic effect of stearic acid in an animal model in which pulmonary fibrosis was induced by bleomycin. For this purpose, 6-week-old mice (C57BL6J) were classified into the following 4 groups of 4 or 5 mice, respectively: groups treated with (1) intratracheal saline+vehicle, (2) intratracheal saline+stearic acid, (3) intratracheal 4 units/kg bleomycin+vehicle, and (4) intratracheal bleomycin+stearic acid. Subsequently, mice were anesthetized with 50 mg/kg […] and 5 mg/kg Rompun, followed by infusion of bleomycin and saline into the trachea. The mice were treated with 3 mg/kg stearic acid using oral gavage (zonde) three times a week for 3 weeks. Thereafter, on day 21, lung tissues and blood were collected from the mice and used for the study.
# [2] = test system: human primary fibroblasts; assay: Combined treatment of stearic acid and nintedanib in human primary fibroblasts; assay type: cell-based; conditions: 40 μM stearic acid single treatment versus TGF single treatment
# Procedure: The primary fibroblasts derived from the patients with idiopathic pulmonary fibrosis used in the following experiment were cultured for 7 to 10 days while cutting the lung tissue of the patient into 1×1 mm^2 slices, and then periodically exchanging a cell culture solution (Eagle's minimal essential medium; EMEM) supplemented with 100 unit/ml penicillin, 100 μg/ml streptomycin, and 10% fetal bovine serum (FBS) under conditions of 5% CO2 and 37° C., and cells of passage 2 to 5 were used for the experiment. To verify the anti-fibrotic effect by the combined treatment of stearic acid and nintedanib, which is another therapeutic agent for idiopathic pulmonary fibrosis, human primary fibroblasts were respectively or simultaneously treated with 5 ng/ml TGF-β, 40 μM stearic acid, and 1.5 or 2 μM nintedanib for 24 hours, and then the expression levels of collagen type 1 (COL-1) and α-SMA, which are markers of fibrosis, were measured, respectively.
# [3] = test system: human pulmonary fibroblasts (MRC-5); assay: Cell viability (MTT) of human pulmonary fibroblasts; assay type: cell-based; conditions: stearic acid 40 uM/mL + TGF-β 5 ng/mL, 24 h, versus TGF-β alone
# Procedure: After epithelial cells and fibroblasts were aliquoted into 6-well plates at 2×10^4 cells/well and a stabilization time was imparted for 24 hours, and 15 hours after deficiency, cells were treated with stearic acid (40 uM/mL), TGF-β (5 ng/mL), and stearic acid (40 uM/mL)+TGF-β (5 ng/mL) in this order. After the cells were cultured in an incubator for 24 hours after the treatment, the next-step experiment was performed.
# After a 24-hour cell stimulation by the method in Example 1-3 was completed, the medium of epithelial cells and fibroblasts was replaced with a general culture medium, 10 μl of an MTT solution (20 mg/ml) was further added, and then the outside of the plate was wrapped with aluminum foil and cells were cultured in an incubator for 2 hours. […] After 2 hours, cell activation was measured at an absorbance value of 595 nm using an ELISA reader.
# For this purpose, after each culture (BEGM(Lonza) in the case of MRC-5, and BMEM (ATCC) in the case of BEAS-2B) of human pulmonary fibroblasts (MRC-5; ATCC® CCL171™) and human pulmonary epithelial cells (BEAS-2B; ATCC® CRL9609™) was treated with stearic acid (40 uM/mL), TGF-β (5 ng/mL; Sigma), or stearic acid (40 uM/mL)+TGF-β (5 ng/mL) by the method described in Example 1-3 for 24 hours, cell viability was measured by the method in Example 1-4. […]
# [4] = day 21, stearic acid 3 mg/kg oral
smiles,measurement,setting,value
CCCCCCCCCCCCCCCCCC(=O)O [stearic acid],reduction in body weight due to bleomycin,"[1]; day 7, stearic acid 3 mg/kg oral gavage three times a week",significantly inhibited
same,expression of p-Smad2/3 in lung tissues,[1]; [4],inhibition of an increase in expression of p-Smad2/3
same,expression of α-SMA in lung tissues,[1]; [4],inhibiting an increase in expression of α-SMA
same,histopathological characteristics of pulmonary fibrosis (H&E),"[1]; day 21, stearic acid 3 mg/kg oral, 3 weeks",remarkably reduced
same,accumulation of hydroxyproline,"[1]; lung tissue, day 21, stearic acid 3 mg/kg oral",inhibiting the accumulation of hydroxyproline
same,blood level of TGF-β1,"[1]; serum, day 21, stearic acid 3 mg/kg oral",inhibiting an increase in the blood level of TGF-β1
same,expression level of COL-1,[2],no change
same,expression level of α-SMA,[2],no change
same,cell viability of pulmonary fibroblasts,[3],cell viability decreased
